The first experiment concerns the target T1, murine MEKK2 (mMEKK2) (Mus musculus, UniProt Q61083).
T1 sequence (Q61083 1-619): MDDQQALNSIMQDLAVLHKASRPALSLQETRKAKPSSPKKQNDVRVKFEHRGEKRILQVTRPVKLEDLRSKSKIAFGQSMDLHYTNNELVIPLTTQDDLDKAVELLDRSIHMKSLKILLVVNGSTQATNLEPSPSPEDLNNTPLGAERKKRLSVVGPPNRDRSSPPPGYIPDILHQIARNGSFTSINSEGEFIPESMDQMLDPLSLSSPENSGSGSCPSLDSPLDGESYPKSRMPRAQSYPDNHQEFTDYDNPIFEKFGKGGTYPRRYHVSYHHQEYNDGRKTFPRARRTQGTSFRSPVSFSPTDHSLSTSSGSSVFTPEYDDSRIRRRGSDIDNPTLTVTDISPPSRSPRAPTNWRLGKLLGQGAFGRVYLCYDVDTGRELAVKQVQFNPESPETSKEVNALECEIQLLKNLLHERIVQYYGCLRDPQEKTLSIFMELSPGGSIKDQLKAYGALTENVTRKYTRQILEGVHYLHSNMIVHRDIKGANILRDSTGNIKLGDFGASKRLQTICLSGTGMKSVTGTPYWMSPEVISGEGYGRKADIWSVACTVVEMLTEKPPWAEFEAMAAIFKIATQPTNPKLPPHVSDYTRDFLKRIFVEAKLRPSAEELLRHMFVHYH
The experiment can be described thus: TR-FRET kinase assay (mMEKK2/MBP). It counts as biochemical. To be noted: substrate biotin MBP, 60 minutes at room temperature. On the procedure: In one approach, MEKK2 inhibitory activity of compounds of the invention can be assessed using the time-resolved Fluorescence Resonance Energy Transfer (TR-FRET) assay detailed in Example 5. In this assay, the excitation energy of one fluorescent molecule (the donor) is transferred by a resonance mechanism to a nearby second fluorescent molecule (the acceptor), which then releases its fluorescent energy through fluorescent emission. This fluorescent energy is measured using a time-resolved fluorescence measurement protocol (LANCE high count 615/665); excitation occurred with 1,000 flashes at 325 nm, measurement was delayed by 100 μs, and data were acquired for 50 μs at 615 and 665 nm.
A TR-FRET kinase assay was used to screen potential inhibitors of MEKK2. The assay was performed as follows: Compounds to be tested were weighed and solubilized in DMSO (Sigma) to a stock concentration of 10 mM. Serial dilutions starting from 1 mM were prepared with additional DMSO. These dilutions were further diluted to 250 μM in kinase reaction buffer [20 mM Hepes pH 7.5, 5 mM MgCl2, 1 mM DTT (Dithiothreitol-Sigma), 1 mM NaVO4 (sodium vanadate-Sigma). A 25 μl aliquot of this solution was transferred to a black 96-well nonbinding surface microplate (Fisher). A stock aliquot containing […] of murine MEKK2 (mMEKK2) was diluted in the kinase reaction buffer and incubated with the compounds on the microplate for 10 minutes. A 25 μl aliquot of a 138 ng solution of biotin MBP (myelin basic protein—Upstate Biotechnology) was added to the reaction followed by 25 ul of a 25 ng solution of anti-phospho MBP antibody (Upstate Biotechnology) diluted in kinase reaction buffer. Finally an aliquot (50 μl) of a 5 uM solution of ATP (adenosine triphosphate) was added and the reaction was allowed to proceed for 60 minutes at room temperature. The reaction was stopped by the addition of 50 μL of a 12.5 ng solution of europium labeled anti-mouse IgG (Perkin Elmer) and 45 ng of Cy5 labeled streptavidin (Jackson Immunoresearch) in termination buffer (20 mM Hepes pH 7.5, 100 mM EDTA; Sigma). The assay was allowed to equilibrate for 45 minutes before placing the plate on the Victor™ plate reader. The plate was read using the 615/665 LANCE protocol.
By IC50 is commonly meant the concentration at which inhibition is half-maximal. Turning to `COc1cccc(-c2nc(SCc3cccc(NC(=O)c4ccc(C)cc4)c3)[nH]c(=O)c2C#N)c1` [Example 2b], the IC50 was below 5 µM.

In turn, `COc1cccc(-c2nc(SCc3cccc(NC(=O)Cc4ccc(Cl)cc4)c3)[nH]c(=O)c2C#N)c1` [Example 2l] had a half-inhibitory concentration (IC50) below 5 µM.

In turn, `COc1cccc(-c2nc(SCc3cccc(NC(=O)COc4ccc(Cl)cc4)c3)[nH]c(=O)c2C#N)c1` [Example 2j] displayed an IC50 below 5 µM.

Compound `COc1cccc(-c2nc(SCc3cccc(NC(=O)c4cc(C(C)(C)C)nn4C)c3)[nH]c(=O)c2C#N)c1` [Example 2q] gave an IC50 below 5 µM.

Consider `COc1cccc(-c2nc(SCc3cccc(NC(=O)c4cc(Cl)cc(Cl)c4)c3)[nH]c(=O)c2C#N)c1` [Example 2p], for which the IC50 is below 5 µM.

`N#Cc1c(-c2cccc(Cn3ccnc3)c2)nc(SCc2cccc(NC(=O)c3ccc(Cl)c(Cl)c3)c2)[nH]c1=O` [Example 4cc] registered an IC50 above 40 µM.

`COc1cccc(-c2nc(SCc3ccc(NC(=O)c4cccnc4Oc4ccc(Cl)cc4)cc3)[nH]c(=O)c2C#N)c1` [Example 2zz] displayed an IC50 above 40 µM.

Compound `COc1cccc(-c2nc(SCc3cccc(NC(=O)c4sccc4C)c3)[nH]c(=O)c2C#N)c1` [Example 2s] yielded an IC50 below 10 µM.

In turn, `COc1cccc(-c2nc(SCc3cccc(NC(=O)c4cc5ccccc5s4)c3)[nH]c(=O)c2C#N)c1` [Example 2m] had a 50% inhibitory concentration (IC50) below 5 µM.

`COc1cccc(-c2nc(SCc3ccccc3NC(=O)Cc3ccccc3)[nH]c(=O)c2C#N)c1` [Example 2mmm] returned an IC50 below 40 µM.

`COc1cccc(-c2nc(SCc3ccc(NC(=O)c4cccc(C(F)(F)F)c4)cc3)[nH]c(=O)c2C#N)c1` [Example 2ss] registered a half-maximal inhibitory concentration (IC50) below 5 µM.

The target in another experiment is T1, murine MEKK2 (mMEKK2). The experiment can be described thus: MEKK2 PhosphoELISA (mMEKK2/MKK4). Type of experiment: biochemical. To be noted: substrate MKK4/SKK1 (unactive), ATP final 10 μM, O.D. 450 nm. The text has this:
Another useful method for assessing protein kinase inhibition, and specifically MEKK2 inhibition, of compounds of the invention involves the MEKK2 phospho-antibody enzyme-linked immunosorbent assay (PhosphoELISA). This screening panel, which involves relatively few steps, is a useful indicator of potential inhibitors of MEKK2. Reactions to murine MEKK2 are observed as optical density measurements at an absorbance of 450 nm. Inhibitory activities can be expressed in terms of IC50, where IC50 is the molar concentration of compound required to inhibit protein kinase binding by 50%.
A phospho-antibody enzyme-linked immunosorbent assay (PhosphoELISA) was used to screen potential inhibitors of MEKK2. The assay was performed as follows: Compounds to be tested were weighed and solubilized in DMSO (Sigma) to a stock concentration of 10 mM. Serial dilutions starting from 1 mM were prepared with additional DMSO. These dilutions were further diluted to 250 μM in kinase reaction buffer [20 mM Hepes pH 7.5, 5 mM MgCl2, 1 mM DTT (Dithiothreitol-Sigma), 1 mM NaVO4 (sodium vanadate- Sigma). A 25 μl aliquot of this solution was transferred to a glutathione coated 96-well microplate (Pierce). A stock aliquot containing 50-125 ng of murine MEKK2 (mMEKK2) was added to each well and incubated on the microplate for 10 minutes at room temperature. A 25 μl solution of MKK4/SKK1 (unactive) was diluted 1:200 in kinase assay buffer and added to the reaction plate followed by 50 μl of 25 μM ATP (adenosine triphosphate) to afford a final well concentration of 10 μM. The reaction was allowed to proceed for 60 minutes at room temperature before washing 3 times with wash buffer [100 mM phosphate pH 7.5, 0.05% TWEEN 20 (Sigma)]. A solution of anti-phospho MKK4/SEK1 antibody (Calbiochem) and biotin anti rabbit IgG (Jackson Immunoresearch) was diluted 1:2500 in kinase reaction buffer and added to the appropriate wells. The reaction was incubated for 60 minutes at room temperature. The microplate was washed 3 times with wash buffer and 100 ul of streptavidin horseradish peroxidase (HRP-Pierce) was added and incubated for 30 minutes at room temperature. The microplate was washed 3 times with wash buffer and 100 μl of TMB (3,3′,5,5′-tetramethylbenzidine-Sigma) was added. The assay was allowed to develop for 15-20 minutes then the reaction was stopped with the addition of 100 μl of 0.2 N sulfuric acid. The optical density (O.D.) of the plate was read on the Victor™ plate reader using the absorbance at 450 nm.
For `N#Cc1c(-c2cccc(-c3cc4ccccc4[nH]3)c2)nc(SCc2cccc(NC(=O)c3ccc(Cl)c(Cl)c3)c2)[nH]c1=O` [Example 2kk, 3,4-Dichloro-N-(3-{5-cyano-4-[3-(1H-indol-2-yl)-phenyl]-6-oxo-1,6-dihydro-pyrimidin-2-ylsulfanylmethyl}-phenyl)-benzamide], the concentration for half-maximal inhibition (IC50) is below 5 µM.

Compound `COc1cccc(-c2nc(SCCCn3cnc4c(NC(=O)c5ccccc5)ncnc43)[nH]c(=O)c2C#N)c1` [Example 4ee] yielded a 50% inhibitory concentration (IC50) above 40 µM.

As for `CCOC(=O)C1CCN(c2ccccc2-c2nc(SCc3cccc(NC(=O)c4ccc(Cl)c(Cl)c4)c3)[nH]c(=O)c2C#N)CC1` [Example 4x], the IC50 is above 40 µM.

With `N#Cc1c(-c2c[nH]c3ccccc23)nc(SCc2cccc(NC(=O)c3ccc(Cl)c(Cl)c3)c2)[nH]c1=O` [Example 2ll, 3,4-Dichloro-N-{3-[5-cyano-4-(1H-indol-3-yl)-6-oxo-1,6-dihydro-pyrimidin-2-ylsulfanylmethyl]-phenyl}-benzamide], the IC50 was below 5 µM.

Compound `N#Cc1c(-c2cccc(N3CCCC3)c2)nc(SCc2cccc(NC(=O)c3ccc(Cl)c(Cl)c3)c2)[nH]c1=O` [Example 4w] had an IC50 below 1 µM.

`N#Cc1c(-c2c[nH]c3ccc(Br)cc23)nc(SCc2cccc(NC(=O)c3ccc(Cl)c(Cl)c3)c2)[nH]c1=O` [Example 2mm, N-{3-[4-(5-Bromo-1H-indol-3-yl)-5-cyano-6-oxo-1,6-dihydro-pyrimidin-2-ylsulfanylmethyl]-phenyl}-3,4-dichloro-benzamide]: the IC50 is below 1 µM.

Regarding `N#Cc1c(-c2ccc(-n3ccnc3)cc2)nc(SCc2cccc(NC(=O)c3ccc(Cl)c(Cl)c3)c2)[nH]c1=O` [Example 4r], the concentration for half-maximal inhibition (IC50) was below 5 µM.

`COc1cccc(-c2nc(SCc3cccc(NCc4cccc(OCCN(C)C)c4)c3)[nH]c(=O)c2C#N)c1` [Example 4a]: the concentration for half-maximal inhibition (IC50) was above 40 µM.

Compound `COc1cccc(-c2nc(SCc3cccc(NC(=O)Nc4ccc(Cl)c(Cl)c4)c3)[nH]c(=O)c2C#N)c1` [Example 3a, 1-{3-[5-Cyano-4-(3-methoxy-phenyl)-6-oxo-1,6-dihydro-pyrimidin-2-ylsulfanylmethyl]-phenyl}-3-(3,4-dichloro-phenyl)-urea] came in with a half-inhibitory concentration (IC50) below 1 µM.

The compound `N#Cc1c(-c2cccc(-n3cccc3)c2)nc(SCc2cccc(NC(=O)c3ccc(Cl)c(Cl)c3)c2)[nH]c1=O` [Example 4q] registered an IC50 below 1 µM.

As for `COc1cccc(-c2nc(SCc3cccc(NC(=O)c4ccc(F)c(F)c4)c3)[nH]c(=O)c2C#N)c1` [Example 2oo, N-{3-[5-Cyano-4-(3-methoxy-phenyl)-6-oxo-1,6-dihydro-pyrimidin-2-ylsulfanylmethyl]-phenyl}-3,4-difluoro-benzamide], the concentration for half-maximal inhibition (IC50) is below 5 µM.

`CN(CCOc1ccc(-c2nc(SCc3cccc(NC(=O)c4ccc(Cl)c(Cl)c4)c3)[nH]c(=O)c2C#N)cc1)c1ccncc1` [Example 4aa] showed an IC50 of 20 µM.

Compound `N#Cc1c(-c2cccc(-n3ccnc3)c2)nc(SCc2cccc(NC(=O)c3ccc(Cl)c(Cl)c3)c2)[nH]c1=O` [Example 4u] had an IC50 below 10 µM.

For the compound `N#Cc1c(-c2ccc(-c3cc4ccccc4s3)cc2)nc(SCc2cccc(NC(=O)c3ccc(Cl)c(Cl)c3)c2)[nH]c1=O` [Example 2aa, N-{3-[4-(4-Benzo[b]thiophen-2-yl-phenyl)-5-cyano-6-oxo-1,6-dihydro-pyrimidin-2-ylsulfanylmethyl]-phenyl}-3,4-dichloro-benzamide], the half-maximal inhibitory concentration (IC50) was below 1 µM.

As to `N#Cc1c(-c2cccc(OC(F)(F)F)c2)nc(SCc2cccc(NC(=O)c3ccc(Cl)c(Cl)c3)c2)[nH]c1=O` [Example 2cc, 3,4-Dichloro-N-{3-[5-cyano-6-oxo-4-(3-trifluoromethoxy-phenyl)-1,6-dihydro-pyrimidin-2-ylsulfanylmethyl]-phenyl}-benzamide], the IC50 is below 1 µM.

The compound `N#Cc1c(-c2cccc(Br)c2)nc(SCc2cccc(NC(=O)c3ccc(Cl)c(Cl)c3)c2)[nH]c1=O` [Example 2nn, N-{3-[4-(3-Bromo-phenyl)-5-cyano-6-oxo-1,6-dihydro-pyrimidin-2-ylsulfanylmethyl]-phenyl}-3,4-dichloro-benzamide] displayed an IC50 below 1 µM.

The values above are taken from patent US20060100226A1, “2-Thiopyrimidinones as therapeutic agents” (priority 2004, published 2006).
